We go through six molecules from publication PMC4462585, “Synthesis and Biological Evaluation of 3-Alkyl-1,5-Diaryl-1H-Pyrazoles as Rigid Analogues of Combretastatin A-4 with Potent Antiproliferative Activity” (PLoS ONE, 2015).

In one series the test system is purified bovine tubulin. In words: Tubulin assembly (polymerization) assay, cell-free, fluorescence-based. It is filed as biochemical. The settings on record: 37°C, IC50 calculated at 80 min, three experiments, read-out: Inhibition of tubulin polymerization IC50. The method, then: Fig 5 Dose-response effects of CA-4 (1), 7i and 7k on the inhibition of tubulin polymerization. Purified bovine tubulin and GTP were mixed in a 96-well plate. The reaction was initiated by warming the solution from 4°C to 37°C. DMSO was used as a vehicle control. The effect on the assembly of tubulin was monitored using a plate reader at 1 min intervals for 90 min at 37°C.
The effect of compounds 7i and 7k on the polymerization of purified brain tubulin was determined employing a fluorescence-based tubulin polymerization assay kit (Cat. #BK011P, Cytoskeleton, Inc., USA) according to the manufacturer’s protocol. Tubulin was re-suspended in ice-cold G-PEM buffer (80 mM PIPES, 2 mM MgCl2, 0.5 mM EGTA, 1 mM GTP, 20% (v/v) glycerol) and added to wells on a 96-well plate containing the designated concentration of drugs or vehicle. Samples were mixed well, and tubulin assembly was monitored (emission wavelength: 450 nm; excitation wavelength: 360 nm) at 1 min intervals for 90 min at 37°C using a plate reader ([…]). IC50 values were calculated at 80 min using SPSS software in three experiments.

In series [1] the test system is gastric adenocarcinoma cell line SGC-7901. In words: MTT antiproliferative assay, SGC-7901. The following applies: Homo sapiens, 72 h drug exposure, triplicate, read-out: Antiproliferative activity (IC50 ± SD) SGC-7901. In kind it is cell-based. From the text: (§1) Pulmonary adenocarcinoma cell lines (A549) and gastric adenocarcinoma cell lines (SGC-7901) were provided as gifts (purchased from the Cell Resource Center of Shanghai Institutes for Biological Sciences) from the China-Japan Research Institute of Medical and Pharmaceutical Sciences, Shenyang Pharmaceutical University. Fibrosarcoma cell lines (HT-1080) were purchased from the Cell Resource Center of Shanghai Institutes for Biological Sciences. All cells were maintained in DMEM containing 1% antibiotics (100 units of penicillin and […] per mL in 0.9% normal saline) and 10% foetal bovine serum in a humidified atmosphere containing 5% CO2 at 37°C.
(§2) Antiproliferative activities of CA-4 and the target compounds were measured using a colourimetric assay using 3-(4,5-dimethylthiazol-2yl-)-2,5-diphenyltetrazolium bromide (MTT). Approximately 3 × 10^4 cells were seeded in a 96-well plate. After 24 h of incubation at 37°C, cells were exposed to compounds of differing concentrations (0.0008 μg/mL, 0.004 μg/mL, 0.02 μg/mL, 0.10 μg/mL, 0.50 μg/mL, 2.5 μg/mL, 12.5 μg/mL, 62.5 μg/mL) for 72 h. After treatment, cells were washed with 1X PBS followed by addition of 100 μL of 0.05% MTT reagent to each well, followed by incubation for 4 h at 37°C. After incubation, the supernatant from each well was carefully removed and the formazan crystals were dissolved in 100 μL of DMSO. The colour density was measured spectrophotometrically at 490 nm using a microplate reader (SpectraMax Plus384, Molecular Devices Corp., USA). The percentage of cell growth inhibition was calculated as follow: inhibition ratio % = (Acontrol—Atreated) / Acontrol × 100%. The 50% inhibitory concentration (IC50) was defined as the concentration that reduced the absorbance of the untreated wells by 50% of the vehicle in the MTT assay.

Series [2] relates to pulmonary adenocarcinoma cell line A549. In words: MTT antiproliferative assay, A549. The following applies: Homo sapiens, 72 h drug exposure, triplicate, read-out: Antiproliferative activity (IC50 ± SD) A549. In kind it is cell-based.
Text: as §1, §2

Series [3] has as its system three human cancer cell lines (SGC-7901, A549 and HT-1080). As to the kind of experiment: MTT antiproliferative assay, three human cancer cell lines. It is filed as cell-based. The settings on record: HT-1080, SGC-7901, A549, 72 h, read-out: Antiproliferative IC50 values, range over the three cancer cell lines.
Text: as §1
Antiproliferative activities of CA-4 and the target compounds were measured using a colourimetric assay using 3-(4,5-dimethylthiazol-2yl-)-2,5-diphenyltetrazolium bromide (MTT). Approximately 3 × 10^4 cells were seeded in a 96-well plate. After 24 h of incubation at 37°C, cells were exposed to compounds of differing concentrations (0.0008 μg/mL, 0.004 μg/mL, 0.02 μg/mL, 0.10 μg/mL, 0.50 μg/mL, 2.5 μg/mL, 12.5 μg/mL, 62.5 μg/mL) for 72 h. […] The colour density was measured spectrophotometrically at 490 nm using a microplate reader (SpectraMax Plus384, Molecular Devices Corp., USA). The percentage of cell growth inhibition was calculated as follow: inhibition ratio % = (Acontrol—Atreated) / Acontrol × 100%. […]

Series [4] concerns microtubule network in SGC-7901 cells. In words: Immunostaining of tubulin assembly in SGC-7901 cells. In kind it is cell-based, human. The following applies: 2-fold IC50 concentration (7k 0.14 μM), 48 h. The method, then:
Microtubules were labelled using the indirect immuno-fluorescence method and were analysed by fluorescence microscopy. […] SGC-7901 cells were treated with 7k (0.14 μM) for 48 h (scale bar = 10 μm). The left, middle and right panels represent the tubulin assembly stained with FITC, DAPI and a merge of the corresponding left and middle panels, respectively. Images were taken using a confocal microscope. Immunostaining was performed to detect microtubule-associated tubulin protein after exposure to CA-4 and compound 7k. The SGC-7901 and HT-1080 cells were seeded at a density of 1 × 10^4 per well on a 24-well plate and grown for 24 h. […] The control and treated cells were fixed in acetone:methanol (1:1) for 30 min at -20°C, washed with 1X PBS, incubated for 30 min in 1X PBS containing 2% BSA, and then 0.1% Triton X-100. The primary tubulin antibody (Cell Signaling Technology, MA, USA) was diluted (1:100) with 2% BSA in 1X PBS and incubated overnight at 4°C. The cells were washed with 1X PBS to remove unbound primary antibody, and then cells were incubated for 3 h at 37°C with FITC-conjugated anti-mouse secondary antibody diluted 1:1000 with 2% BSA in PBS.

Series [5] concerns microtubule network in HT-1080 cells. In words: Immunostaining of tubulin assembly in HT-1080 cells. It is filed as cell-based, human. The following applies: 2-fold IC50 concentration (7k 0.18 μM), 48 h. The procedure: Microtubules were labelled using the indirect immuno-fluorescence method and were analysed by fluorescence microscopy. […] HT-1080 cells were treated with 7k (0.18 μM) for 48 h (scale bar = 10 μm). The left, middle and right panels represent tubulin assembly stained with FITC, DAPI and a merge of the corresponding left and middle panels, respectively. Images were taken using a confocal microscope. Immunostaining was performed to detect microtubule-associated tubulin protein after exposure to CA-4 and compound 7k. The SGC-7901 and HT-1080 cells were seeded at a density of 1 × 10^4 per well on a 24-well plate and grown for 24 h. […] The control and treated cells were fixed in acetone:methanol (1:1) for 30 min at -20°C, washed with 1X PBS, incubated for 30 min in 1X PBS containing 2% BSA, and then 0.1% Triton X-100. The primary tubulin antibody (Cell Signaling Technology, MA, USA) was diluted (1:100) with 2% BSA in 1X PBS and incubated overnight at 4°C. The cells were washed with 1X PBS to remove unbound primary antibody, and then cells were incubated for 3 h at 37°C with FITC-conjugated anti-mouse secondary antibody diluted 1:1000 with 2% BSA in PBS.

The test system of series [6] is fibrosarcoma cell line HT-1080. In words: MTT antiproliferative assay, HT-1080. In kind it is cell-based. The following applies: Homo sapiens, 72 h drug exposure, triplicate, read-out: Antiproliferative activity (IC50 ± SD) HT-1080.
Text: as §1, §2

As for `COc1ccc(/C=C\c2cc(OC)c(OC)c(OC)c2)cc1O` [Compound 1, Combretastatin A-4], the IC50 in the series with purified bovine tubulin is 900 nM; in series [1], 16 ± 10 nM; in series [2], 35 ± 9 nM; in series [3], 16 to 35 nM; in series [6] it was 23 ± 12 nM. Besides, the “Effect on microtubule network (immunofluorescence), SGC-7901” value in series [4] is “disruption of the tubulin network”. In series [5], the “Effect on microtubule network (immunofluorescence), HT-1080” value was “disruption of the tubulin network”.

As for `COc1ccc(-c2cc(C)nn2-c2cc(OC)c(OC)c(OC)c2)cc1O` [Compound 7i, 3-Methyl-5-(3-hydroxy-4-methoxyphenyl)-1-(3,4,5-trimethoxyphenyl)-1H-pyrazole], the melting point is 130 to 131 °C. Further, in the series with purified bovine tubulin, the IC50 is 2500 nM. Also, the IC50 in series [1] was 275 ± 20 nM. For the same molecule, in series [2], the half-inhibitory concentration (IC50) stood at 1120 ± 120 nM. In series [6], the 50% inhibitory concentration (IC50) is 930 ± 130 nM.

For the molecule `COc1ccc(-c2cc(C)nn2-c2cc(OC)c(OC)c(OC)c2)cc1N` [Compound 7k, 3-Methyl-5-(3-amino-4-methoxyphenyl)-1-(3,4,5-trimethoxyphenyl)-1H-pyrazole], the melting point lay within 129 to 130 °C. In addition, the IC50 with purified bovine tubulin was 1700 nM. Besides, the IC50 in series [1] was determined as 76 ± 9 nM. Further, the IC50 in series [2] was 96 ± 11 nM. Further, the IC50 in series [3] was 76 to 120 nM. Further, the “Effect on microtubule network (immunofluorescence), SGC-7901” value in series [4] is listed as “disruption of the tubulin network”. The “Effect on microtubule network (immunofluorescence), HT-1080” value in series [5] is “disruption of the tubulin network”. Moreover, the 50% inhibitory concentration (IC50) in series [6] came to 122 ± 13 nM.

Consider `COc1ccc(-n2nc(C)cc2-c2cc(OC)c(OC)c(OC)c2)cc1N` [Compound 8g, 3-Methyl-1-(3-amino-4-methoxyphenyl)-5-(3,4,5-trimethoxyphenyl)-1H-pyrazole], for which the melting point fell in the range of 56 to 57 °C. Further, the 50% inhibitory concentration (IC50) in series [1] worked out at 21200 ± 1600 nM. Moreover, in series [2], the half-inhibitory concentration (IC50) worked out at 21400 ± 1200 nM. The half-inhibitory concentration (IC50) in series [6] was determined as 24700 ± 2300 nM.

Molecule `C=CCOc1cc(-n2nc(C)cc2-c2cc(OC)c(OC)c(OC)c2)ccc1OC` [Compound 8h, 3-Methyl-1-(3-allyloxy-4-methoxyphenyl)-5-(3,4,5-trimethoxyphenyl)-1H-pyrazole] came in with a melting point of 98 to 99 °C. In addition, in series [1], the IC50 is above 100000 nM. Besides, the IC50 in series [2] is above 100000 nM. Further, the IC50 in series [6] was above 100000 nM.

For `COc1ccc(-n2nc(C)cc2-c2cc(OC)c(OC)c(OC)c2)cc1O` [Compound 8i, 3-Methyl-1-(3-hydroxy-4-methoxyphenyl)-5-(3,4,5-trimethoxyphenyl)-1H-pyrazole], the melting point lay within 167 to 168 °C. Further, the concentration for half-maximal inhibition (IC50) in series [1] turned out to be 13700 ± 1200 nM. For the same molecule, the IC50 in series [2] came to 21800 ± 2100 nM. Also, in series [6], the IC50 is 15000 ± 900 nM.
